# Laboratory results published in patent US12082579B2, “Compositions and methods to manage hemiptera” (ISCA Technologies, Inc., priority 2021, dated 2024).
# System: Diceraus melacanthus
# Experiment: Field study in a wheat harvest area: attraction of stink bugs by pear ester versus regular pheromone, 24 hour period, six blocks
# Type: in vivo
# Details: for attraction rate (stink bugs attracted per treatment): wheat harvest area
# Experimental: A study was conducted to evaluate the effectiveness of pear ester versus regular pheromone to attract sting bugs. In particular, a study was conducted in a wheat harvest area in an attempt to attract the stink bug, Diceraus melacanthus.
compound,measurement,setting,value
"CCCCC/C=C\C=C\C(=O)OCC [Pear Ester, Ethyl-2E,4Z-decadienoate]",attraction rate compared with regular pheromone,"24 hour period, six blocks, result in words","at least, the same as the regular pheromone"
same,attraction rate (stink bugs attracted per treatment),"Block 1, 24 hour period",3
same,attraction rate (stink bugs attracted per treatment),"Block 2, 24 hour period",1
same,attraction rate (stink bugs attracted per treatment),"Block 3, 24 hour period",0
same,attraction rate (stink bugs attracted per treatment),"Block 4, 24 hour period",0
same,attraction rate (stink bugs attracted per treatment),"Block 5, 24 hour period",3
same,attraction rate (stink bugs attracted per treatment),"Block 6, 24 hour period",1
same,"attraction rate, Mean","Mean of six blocks, 24 hour period",1.33
same,"attraction rate, Sum","Sum of six blocks, 24 hour period",8.00
same,attractant effect on stink bugs,"stink bugs, including Diceraus melacanthus, Nezara viridula, Piezodorus guildinii, Tibraca limbativentris, Chinavia spp, Edessa meditabunda, Euschistus heros, result in words",clearly has an attractant effect
